In patent US10131653B2, “Heterocyclic compound” (TAKEDA PHARMACEUTICAL COMPANY LIMITED, priority 2015, dated 2018):
Where a name gives a salt, the structure may show the parent alone. Read-outs that look alike come from different tables or passages of the source.

Experiments:
human OX1 receptor = molecular target: T1, human OX1 receptor (Homo sapiens, UniProt O43613); test: Measurement of orexin receptor antagonistic activity (calcium fluorescence, FLIPRtetra); format: cell-based; conditions: CHO, read-out: Human Orexin1 receptor inhibition (at 10 μM)
T1 construct: expressed in transfected cells; host or cells: CHO cells
T1 sequence (O43613 1-425): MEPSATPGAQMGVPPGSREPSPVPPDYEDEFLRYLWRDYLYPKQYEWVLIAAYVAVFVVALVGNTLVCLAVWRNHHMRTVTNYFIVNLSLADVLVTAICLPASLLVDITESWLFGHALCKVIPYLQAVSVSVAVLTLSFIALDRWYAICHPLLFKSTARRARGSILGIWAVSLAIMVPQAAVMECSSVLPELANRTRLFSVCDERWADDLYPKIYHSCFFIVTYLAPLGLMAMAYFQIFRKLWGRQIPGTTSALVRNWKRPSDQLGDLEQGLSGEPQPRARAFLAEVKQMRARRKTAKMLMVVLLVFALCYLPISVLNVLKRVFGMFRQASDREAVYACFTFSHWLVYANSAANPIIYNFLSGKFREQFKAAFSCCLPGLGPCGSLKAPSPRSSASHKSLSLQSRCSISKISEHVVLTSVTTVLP
In short: (§1)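 CHO cells expressing human OX1 or OX2 receptor, cultured one day. Compound in HBSS/20 mM HEPES/0.1% BSA added, then orexin-A at 1 nM final (OX1) or 0.3 nM final (OX2); calcium fluorescence by FLIPRtetra every 1 s for 2 min.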

human OX2 receptor = molecular target: T2, human OX2 receptor (Homo sapiens, UniProt O43614); test: as above; format: cell-based; conditions: CHO, read-out: Human Orexin2 receptor inhibition (at 10 μM)
T2 construct: expressed in transfected cells; host or cells: CHO cells
T2 sequence (O43614 1-444): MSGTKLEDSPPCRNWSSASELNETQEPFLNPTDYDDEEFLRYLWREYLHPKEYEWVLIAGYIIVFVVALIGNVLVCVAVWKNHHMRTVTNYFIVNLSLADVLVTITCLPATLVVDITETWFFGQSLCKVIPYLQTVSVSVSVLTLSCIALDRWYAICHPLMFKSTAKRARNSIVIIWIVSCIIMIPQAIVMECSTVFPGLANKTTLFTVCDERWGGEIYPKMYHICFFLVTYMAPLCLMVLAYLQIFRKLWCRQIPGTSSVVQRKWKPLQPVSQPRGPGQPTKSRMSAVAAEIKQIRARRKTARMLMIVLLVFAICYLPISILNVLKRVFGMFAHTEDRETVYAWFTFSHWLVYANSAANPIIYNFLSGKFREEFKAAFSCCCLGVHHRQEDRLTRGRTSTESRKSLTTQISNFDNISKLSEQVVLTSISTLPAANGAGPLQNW
In short: as §1

[1] = 10 μM test compound, CHO cells expressing human OX1 receptor, OX-A 1 nM
[2] = 10 μM test compound, CHO cells expressing human OX2 receptor, OX-A 0.3 nM

SMILES	inhibition at 10 µM (human OX1 receptor; [1]) [%]	inhibition at 10 µM (human OX2 receptor; [2]) [%]	inhibition at 10 µM (human OX1 receptor) [%]	inhibition at 10 µM (human OX2 receptor) [%]
Cc1cc(N2CCN(C(=O)c3ccccc3-c3nc(C)cs3)C[C@H](C)O2)nc(C)n1 [Example 110, ((7S)-2-(2,6-dimethylpyrimidin-4-yl)-7-methyl-1,2,5-oxadiazepan-5-yl)(2-(4-methyl-1,3-thiazol-2-yl)phenyl)methanone]	79	95	–	–
Cc1nc(N2CCN(C(=O)c3ccccc3-c3nc(C)no3)C[C@H](C)O2)cc(C(F)(F)F)n1 [Example 111, ((7S)-7-methyl-2-(2-methyl-6-(trifluoromethyl)pyrimidin-4-yl)-1,2,5-oxadiazepan-5-yl)(2-(3-methyl-1,2,4-oxadiazol-5-yl)phenyl)methanone]	9	100	–	–
CCC1CN(C(=O)c2ccccc2-n2nccn2)CCN(c2cc(C)nc(C)n2)O1 (stereo not drawn) [Example 112, (2-(2,6-dimethylpyrimidin-4-yl)-7-ethyl-1,2,5-oxadiazepan-5-yl)(2-(2H-1,2,3-triazol-2-yl)phenyl)methanone]	90	101	–	–
COCC1CN(C(=O)c2ccccc2-n2nccn2)CCN(c2cc(C)nc(C)n2)O1 (stereo not drawn) [Example 113, (2-(2,6-dimethylpyrimidin-4-yl)-7-(methoxymethyl)-1,2,5-oxadiazepan-5-yl)(2-(2H-1,2,3-triazol-2-yl)phenyl)methanone]	16	102	–	–
Cc1ccc(-n2nccn2)c(C(=O)N2CCN(c3nc(C)cc(C)n3)OC[C@H]2C)c1 [Example 114, ((6R)-2-(4,6-dimethylpyrimidin-2-yl)-6-methyl-1,2,5-oxadiazepan-5-yl) (5-methyl-2-(2H-1,2,3-triazol-2-yl)phenyl)methanone]	69	96	–	–
Cc1ccc(-n2nccn2)c(C(=O)N2CCN(c3nc(C)cc(C#N)n3)OC[C@H]2C)c1 [Example 115, 6-methyl-2-((6R)-6-methyl-5-(5-methyl-2-(2H-1,2,3-triazol-2-yl)benzoyl)-1,2,5-oxadiazepan-2-yl)pyrimidine-4-carbonitrile]	103	100	–	–
Cc1ccc(-n2nccn2)c(C(=O)N2CCN(c3ncc4sccc4n3)OC[C@H]2C)c1 [Example 116, ((6R)-6-methyl-2-(thieno[3,2-d]pyrimidin-2-yl)-1,2,5-oxadiazepan-5-yl) (5-methyl-2-(2H-1,2,3-triazol-2-yl)phenyl)methanone]	101	100	–	–
COc1nc(N2CCN(C(=O)c3cc(C)ccc3-n3nccn3)[C@H](C)CO2)ncc1F [Example 117, ((6R)-2-(5-fluoro-4-methoxypyrimidin-2-yl)-6-methyl-1,2,5-oxadiazepan-5-yl)(5-methyl-2-(2H-1,2,3-triazol-2-yl)phenyl)methanone hydrochloride]	77	100	–	–
Cc1ccc(-n2nccn2)c(C(=O)N2CCN(c3nc4cc(Cl)ccc4o3)OC[C@H]2C)c1 [Example 118, ((6R)-2-(5-chloro-1,3-benzoxazol-2-yl)-6-methyl-1,2,5-oxadiazepan-5-yl)(5-methyl-2-(2H-1,2,3-triazol-2-yl)phenyl)methanone]	101	102	–	–
Cc1ccc(-n2nccn2)c(C(=O)N2CCN(c3ccc(F)cn3)OC[C@H]2C)c1 [Example 119, ((6R)-2-(5-fluoropyridin-2-yl)-6-methyl-1,2,5-oxadiazepan-5-yl)(5-methyl-2-(2H-1,2,3-triazol-2-yl)phenyl)methanone]	48	92	–	–
COc1cccc(N2CCN(C(=O)c3cc(C)ccc3-n3nccn3)[C@H](C)CO2)c1 [Example 120, ((6R)-2-(3-methoxyphenyl)-6-methyl-1,2,5-oxadiazepan-5-yl) (5-methyl-2-(2H-1,2,3-triazol-2-yl)phenyl)methanone]	83	100	–	–
Cc1ccc(-n2nccn2)c(C(=O)N2CCN(c3ccc(Cl)cn3)OC[C@H]2C)c1 [Example 121, ((6R)-2-(5-chloropyridin-2-yl)-6-methyl-1,2,5-oxadiazepan-5-yl) (5-methyl-2-(2H-1,2,3-triazol-2-yl)phenyl)methanone]	92	94	–	–
Cc1ccc(-n2nccn2)c(C(=O)N2CCN(c3ncccc3Cl)OC[C@H]2C)c1 [Example 122, ((6R)-2-(3-chloropyridin-2-yl)-6-methyl-1,2,5-oxadiazepan-5-yl) (5-methyl-2-(2H-1,2,3-triazol-2-yl)phenyl)methanone]	11	69	–	–
COc1cccnc1N1CCN(C(=O)c2cc(C)ccc2-n2nccn2)[C@H](C)CO1 [Example 123, ((6R)-2-(3-methoxypyridin-2-yl)-6-methyl-1,2,5-oxadiazepan-5-yl) (5-methyl-2-(2H-1,2,3-triazol-2-yl)phenyl)methanone]	23	74	–	–
Cc1ccc(-n2nccn2)c(C(=O)N2CCN(c3cccc(C)n3)OC[C@H]2C)c1 [Example 124, ((6R)-6-methyl-2-(6-methylpyridin-2-yl)-1,2,5-oxadiazepan-5-yl) (5-methyl-2-(2H-1,2,3-triazol-2-yl)phenyl)methanone]	85	101	–	–
Cc1ccnc(N2CCN(C(=O)c3cc(C)ccc3-n3nccn3)[C@H](C)CO2)c1 [Example 125, ((6R)-6-methyl-2-(4-methylpyridin-2-yl)-1,2,5-oxadiazepan-5-yl) (5-methyl-2-(2H-1,2,3-triazol-2-yl)phenyl)methanone]	68	98	–	–
COc1cccc(N2CCN(C(=O)c3cc(C)ccc3-n3nccn3)[C@H](C)CO2)n1 [Example 126, ((6R)-2-(6-methoxypyridin-2-yl)-6-methyl-1,2,5-oxadiazepan-5-yl) (5-methyl-2-(2H-1,2,3-triazol-2-yl)phenyl)methanone]	96	97	–	–
Cc1ccc(-n2nccn2)c(C(=O)N2CCN(c3cc(C(F)(F)F)ccn3)OC[C@H]2C)c1 [Example 127, (5-methyl-2-(2H-1,2,3-triazol-2-yl)phenyl) ((6R)-6-methyl-2-(4-(trifluoromethyl)pyridin-2-yl)-1,2,5-oxadiazepan-5-yl)methanone]	66	86	–	–
Cc1ccc(-n2nccn2)c(C(=O)N2CCN(c3cccc(C(F)(F)F)n3)OC[C@H]2C)c1 [Example 128, (5-methyl-2-(2H-1,2,3-triazol-2-yl)phenyl) ((6R)-6-methyl-2-(6-(trifluoromethyl)pyridin-2-yl)-1,2,5-oxadiazepan-5-yl)methanone]	99	96	–	–
Cc1ccc(-n2nccn2)c(C(=O)N2CCN(c3nc(C)cnc3C)OC[C@H]2C)c1 [Example 129, ((6R)-2-(3,6-dimethylpyrazin-2-yl)-6-methyl-1,2,5-oxadiazepan-5-yl) (5-methyl-2-(2H-1,2,3-triazol-2-yl)phenyl)methanone]	38	86	–	–
Cc1ccc(-n2nccn2)c(C(=O)N2CCN(c3cn4ccccc4n3)OC[C@H]2C)c1 [Example 130, ((6R)-2-(imidazo[1,2-a]pyridin-2-yl)-6-methyl-1,2,5-oxadiazepan-5-yl) (5-methyl-2-(2H-1,2,3-triazol-2-yl)phenyl)methanone]	–	–	62	56
Cc1cncc(N2CCN(C(=O)c3cc(C)ccc3-n3nccn3)[C@H](C)CO2)c1 [Example 131, ((6R)-6-methyl-2-(5-methylpyridin-3-yl)-1,2,5-oxadiazepan-5-yl) (5-methyl-2-(2H-1,2,3-triazol-2-yl)phenyl)methanone]	–	–	-7	38
COc1cncc(N2CCN(C(=O)c3cc(C)ccc3-n3nccn3)[C@H](C)CO2)c1 [Example 132, ((6R)-2-(5-methoxypyridin-3-yl)-6-methyl-1,2,5-oxadiazepan-5-yl) (5-methyl-2-(2H-1,2,3-triazol-2-yl)phenyl)methanone]	10	67	–	–
Cc1ccc(-n2nccn2)c(C(=O)N2CCN(c3cncc(Cl)c3)OC[C@H]2C)c1 [Example 133, ((6R)-2-(5-chloropyridin-3-yl)-6-methyl-1,2,5-oxadiazepan-5-yl) (5-methyl-2-(2H-1,2,3-triazol-2-yl)phenyl)methanone]	–	–	11	70
